Among the data in patent US8158638B2, “Pyrazolopyrimidine derivative” (Daiichi Sankyo Company, Limited, priority 2006, dated 2012) are GI50 and IC50 values, retold here.

Assay [1] deals with human breast cancer cell line SK-BR-3. Kind of assay: Cell growth inhibition assay (MTT), SK-BR-3. The format is cell-based. The note with it: Homo sapiens; SK-BR-3, MTT assay, 72 hours; read-out: GI50 value (50% growth inhibitory concentration). Here is the method: (§1) A cell growth inhibition assay was performed using two types of cells (human breast cancer cell line SK-BR-3 and human lung cancer cell line NCI-H460).
(§2) Cells of each type were suspended in a medium and seeded into a 96-well multi-well plate at 500 cells/150 μl/well. The test compound was dissolved in DMSO, and this was diluted with medium to prepare a sample solution (DMSO concentration: 0.5% or less). On the day following the seeding, 50 μL of DMSO-containing medium to which the test compound was not added (hereinafter called DMSO diluted solution; DMSO concentration: 0.5% or less) or the sample solution was added to the cells. An MTT assay was performed immediately after and 72 hours after adding the sample solution or the DMSO diluted solution to the cells. The MTT assay was performed as follows.
(§3) 5 mg/mL of an MTT (3-(4,5-dimethylthiazol-2-yl)-2,5-diphenyltetrazolium bromide) solution was added at 20 μL per well. Thereafter, the plate was incubated at 37° C. in 5% CO2 for four hours. The plate was centrifuged at 1200 rpm for five minutes, and then the culture supernatant was removed by suction using a dispenser. DMSO was added at 150 μL per well, and the generated formazan was dissolved. The plate was stirred using a plate mixer to uniformly color the respective wells. The absorbance of each well was measured using a plate reader at an OD of 540 nm with a reference of 660 nm.
(§4) T/C (%) for each concentration was determined by the following calculation formula and a dose-response curve was drawn to calculate the 50% growth inhibitory concentration (GI50 value), based on the assumption that the OD value measured immediately after adding the sample solution was S, the OD value measured 72 hours after adding the sample solution was T, and the OD value measured 72 hours after adding the DMSO diluted solution was C. T/C(%)=(T−S)/(C−S)×100
(In general: Tetrazolium assays rely on reduction of a dye to a coloured formazan, in cell work by metabolically active cells.)

For assay [2], the system named is human lung cancer cell line NCI-H460. As to the kind of experiment: Cell growth inhibition assay (MTT), NCI-H460. The format is cell-based. The note with it: Homo sapiens; NCI-H460, MTT assay, 72 hours; read-out: GI50 value (50% growth inhibitory concentration). The protocol: as §1, §2, §3, §4
The target in assay [3] is T1, recombinant yeast Hsp90 protein (rHsp90) (Saccharomyces cerevisiae, UniProt P02829).
T1 construct: made in house; host or cells: Escherichia coli
T1 sequence (P02829 whole entry): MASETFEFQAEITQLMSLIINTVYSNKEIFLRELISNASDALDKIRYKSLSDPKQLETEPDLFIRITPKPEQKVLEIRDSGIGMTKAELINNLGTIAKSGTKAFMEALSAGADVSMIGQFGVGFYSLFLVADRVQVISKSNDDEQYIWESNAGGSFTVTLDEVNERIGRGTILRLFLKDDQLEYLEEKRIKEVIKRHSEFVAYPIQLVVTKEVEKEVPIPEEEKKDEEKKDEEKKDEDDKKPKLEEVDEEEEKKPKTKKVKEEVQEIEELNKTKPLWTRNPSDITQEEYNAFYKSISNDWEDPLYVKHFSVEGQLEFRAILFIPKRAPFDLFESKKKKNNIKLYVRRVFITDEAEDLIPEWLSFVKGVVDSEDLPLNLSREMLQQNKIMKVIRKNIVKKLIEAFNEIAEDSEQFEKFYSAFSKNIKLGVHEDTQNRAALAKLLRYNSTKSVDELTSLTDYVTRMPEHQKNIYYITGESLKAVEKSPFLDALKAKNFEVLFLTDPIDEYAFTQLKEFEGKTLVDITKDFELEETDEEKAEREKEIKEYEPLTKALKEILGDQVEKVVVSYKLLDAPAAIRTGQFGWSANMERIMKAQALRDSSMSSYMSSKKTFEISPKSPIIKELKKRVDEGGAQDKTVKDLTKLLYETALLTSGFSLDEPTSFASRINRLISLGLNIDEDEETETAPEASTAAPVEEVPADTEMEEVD
Kind of assay: Hsp90 ATPase assay. The note with it: rHsp90 100 μg/mL, ATP 100 μM, 37° C., two hours, BIOMOL GREEN; read-out: IC50 value (concentration for 50% inhibition of ATP activity). The format is biochemical. Here is the method: An Hsp90 ATPase assay was performed using a recombinant yeast Hsp90 protein (hereinafter called rHsp90). Yeast Hsp90 DNA was cloned from a yeast genomic DNA library according to a conventional method. The cloned yeast Hsp90 DNA was incorporated into a plasmid for expression in Escherichia coli, and the plasmid was expressed in Escherichia coli to obtain rHsp90.
The test compound was dissolved in DMSO to 10 mM. The dissolved solution was diluted with DMSO to eight concentrations ranging in three-fold dilutions from 4 mM. Each diluted solution was further 10-fold diluted with an assay buffer (100 mM Tris, pH 7.4, 20 mM KCl, 6 mM MgCl2) (concentration of each test compound solution: 400 μM, 133 μM, 44.4 μM, 14.8 μM, 4.94 μM, 1.65 μM, 0.549 μM, 0.183 μM; DMSO concentration: 10%).
rHsp90 was dissolved in a TE buffer (20 mM Tris, pH 7.4, 1 mM EDTA) to a concentration of 2.531 mg/mL. The dissolved solution was diluted with assay buffer to 125 μg/mL and dispensed to a 96-well assay plate at 40 μL per well (final concentration: 100 μg/mL).
The test compound solution was dispensed at 5 μL per well, and then the solutions in the respective wells were mixed using a plate mixer. 100 mM ATP (Sigma, Catalog No. A-7699) was diluted with assay buffer to 1 mM and dispensed at 5 μL per well (final concentration: 100 μM). The solutions in the respective wells were mixed using a plate mixer, and then the assay plate was allowed to stand in an incubator set at 37° C. for two hours.
BIOMOL GREEN Reagent (BIOMOL, Catalog No. AK-111) was dispensed at 100 μL per well, and the reaction was terminated. The solutions in the respective wells were mixed by pipetting (three times), and then 34% sodium citrate was dispensed at 10 μL per well. The solutions in the respective wells were mixed by pipetting (three times), and then the assay plate was left to stand at room temperature for 10 minutes. The absorbance at 630 nm of each well was measured with a microplate reader.
The ratio of the absorbance of the test compound-added group to the absorbance of the test compound-free group (T/C value) was determined by the following calculation formula, based on the assumption that the absorbance of the well to which the test compound and rHsp90 were added was A, the absorbance of the well to which only rHsp90 was added was B, and the absorbance of the well to which neither the test compound nor rHsp90 was added was C. T/C=(A−C)/(B−C)
Further, the concentration for 50% inhibition of ATP activity (IC50 value) was calculated using GraphPad Prism 4 (GraphPad Software, Inc.).

On to `COc1c(C)cnc(Cn2nc3c4c(nc(N)nc42)SCC3)c1C` [Example 2, 2-[(4-Methoxy-3,5-dimethylpyridin-2-yl)methyl]-7,8-dihydro-2H-6-thia-1,2,3,5-tetraazaacenaphthylen-4-amine], for which the GI50 in assay [1] stood at 148 nM; in assay [2], 224 nM. Moreover, the IC50 in assay [3] is 1000 nM.

Regarding `COc1c(C)cnc(Cn2nc3c4c(nc(N)nc42)SC(C#N)C3)c1C` (centres unmarked) [Example 4, 4-Amino-2-[(4-methoxy-3,5-dimethylpyridin-2-yl)methyl]-7,8-dihydro-2H-6-thia-1,2,3,5-tetraazaacenaphthylene-7-carbonitrile], the GI50 in assay [1] was 44 nM; in assay [2] it was 69 nM. Also, the IC50 in assay [3] was found to be 870 nM.

Turning to `CNC(=O)C1Cc2nn(Cc3ncc(C)c(OC)c3C)c3nc(N)nc(c23)S1` (centres unmarked) [Example 9, 4-Amino-2-[(4-methoxy-3,5-dimethylpyridin-2-yl)methyl]-N-methyl-7,8-dihydro-2H-6-thia-1,2,3,5-tetraazaacenaphthylene-7-carboxamide], the GI50 in assay [1] is 137 nM; in assay [2] it was 159 nM. Further, the IC50 in assay [3] was 1200 nM.

Consider `COc1c(C)cnc(Cn2nc3c4c(nc(N)nc42)SC(C(=O)NC2CC2)C3)c1C` (centres unmarked) [Example 12, 4-Amino-N-cyclopropyl-2-[(4-methoxy-3,5-dimethylpyridin-2-yl)methyl]-7,8-dihydro-2H-6-thia-1,2,3,5-tetraazaacenaphthylene-7-carboxamide], for which the GI50 amounted to 150 nM in assay [1] and 460 nM in assay [2]. In addition, the IC50 in assay [3] worked out at 2200 nM.

`COc1c(C)cnc(Cn2nc3c4c(nc(N)nc42)SCC=C3)c1C` [Example 36, 2-[(4-Methoxy-3,5-dimethylpyridin-2-yl)methyl]-2,7-dihydro-6-thia-1,2,3,5-tetraazabenzo[cd]azulen-4-amine]: the results for the GI50 in assay [1] and in assay [2] were 52 nM and 86 nM, respectively. In addition, the IC50 in assay [3] worked out at 970 nM.

With `CNC(=O)OC1CSc2nc(N)nc3c2c(nn3Cc2ncc(C)c(OC)c2C)C1` (centres unmarked) [Example 37, 4-Amino-2-[(4-methoxy-3,5-dimethylpyridin-2-yl)methyl]-2,7,8,9-tetrahydro-6-thia-1,2,3,5-tetraazabenzo[cd]azulen-8-yl methylcarbamate], the GI50 in assay [1] stood at 307 nM; in assay [2] it was 411 nM. In assay [3], the IC50 came out at 3300 nM.

Turning to `Nc1nc2c3c(nn(Cc4cc5c(cn4)OCCO5)c3n1)CCS2` [Example 172, 2-(2,3-Dihydro[1,4]dioxino[2,3-c]pyridin-7-ylmethyl)-7,8-dihydro-2H-6-thia-1,2,3,5-tetraazaacenaphthylen-4-amine], the IC50 in assay [3] is 1500 nM.

On to `Nc1nc2c3c(nn(Cc4nc5cccc(Cl)c5s4)c3n1)CCS2` [Example 174, 2-[(7-Chloro-1,3-benzothiazol-2-yl)methyl]-7,8-dihydro-2H-6-thia-1,2,3,5-tetraazaacenaphthylen-4-amine], for which the IC50 in assay [3] was determined as 3400 nM.

In the case of `Cc1cnc(Cn2nc3c4c(nc(N)nc42)SCC3)c(C)c1Cl` [Example 175, 2-[(4-Chloro-3,5-dimethylpyridin-2-yl)methyl]-7,8-dihydro-2H-6-thia-1,2,3,5-tetraazaacenaphthylen-4-amine], the IC50 in assay [3] came out at 1200 nM.

For the compound `CCc1c(C)cnc(Cn2nc3c4c(nc(N)nc42)SCC3)c1C` [Example 176, 2-[(4-Ethyl-3,5-dimethylpyridin-2-yl)methyl]-7,8-dihydro-2H-6-thia-1,2,3,5-tetraazaacenaphthylen-4-amine], in assay [3], the IC50 came out at 890 nM.

Consider `COc1c(C)cnc(Cn2nc3c4c(nc(N)nc42)SCC(CO)=C3)c1C` [Example 214, {4-Amino-2-[(4-methoxy-3,5-dimethylpyridin-2-yl)methyl]-2,7-dihydro-6-thia-1,2,3,5-tetraazabenzo[cd]azulen-8-yl}methanol], for which the IC50 in assay [3] was 760 nM.
